Nine compounds from US8022099B2, “N-benzyl pyrrolidine derivatives” (Hoffmann-La Roche Inc., priority 2008, dated 2011) can be followed below.

SMILES strings stand for the structures.

The target of this test is T1, human NK3 receptor (Homo sapiens, UniProt P29371).
T1 construct: expressed in transfected cells; host or cells: HEK293 cells (transient expression), membrane preparation
T1 sequence (P29371 1-465): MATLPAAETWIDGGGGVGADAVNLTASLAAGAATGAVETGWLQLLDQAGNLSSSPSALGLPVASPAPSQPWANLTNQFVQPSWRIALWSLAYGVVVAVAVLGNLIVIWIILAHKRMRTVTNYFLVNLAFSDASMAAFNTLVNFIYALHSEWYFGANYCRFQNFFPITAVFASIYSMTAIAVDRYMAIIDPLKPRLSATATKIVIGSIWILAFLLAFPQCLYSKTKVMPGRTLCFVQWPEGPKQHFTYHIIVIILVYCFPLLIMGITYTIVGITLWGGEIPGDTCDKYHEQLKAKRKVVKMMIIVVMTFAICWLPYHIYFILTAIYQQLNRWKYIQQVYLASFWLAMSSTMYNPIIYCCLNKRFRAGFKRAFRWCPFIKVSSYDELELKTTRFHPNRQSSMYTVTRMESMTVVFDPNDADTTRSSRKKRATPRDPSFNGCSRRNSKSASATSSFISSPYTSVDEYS
Kind of test: [3H]SR142801 competition binding assay. The following applies: hNK3 receptor binding, [3H]SR142801, membranes from HEK293 cells transiently expressing recombinant human NK3 receptor. Here is the method: [^3H]SR142801 Competition Binding Assay
hNK3 receptor binding experiment were performed using [^3H]SR142801 (Catalog No. TRK1035, specific activity: 74.0 Ci/mmol, Amersham, GE Healthcare UK limited, Buckinghamshire, UK) and membrane isolated from HEK293 cells transiently expressing recombinant human NK3 receptor. After thawing, the membrane homogenates were centrifuged at 48,000×g for 10 min at 4° C., the pellets were resuspended in the 50 mM Tris-HCl, 4 mM MnCl2, 1 μM phosphoramidon, 0.1% BSA binding buffer at pH 7.4 to a final assay concentration of 5 μg protein/well. For inhibition experiments, membranes were incubated with [^3H]SR142801 at a concentration equal to KD value of radioligand and 10 concentrations of the inhibitory compound (0.0003-10 μM) (in a total reaction volume of 500 μl) for 75 min at room temperature (RT). At the end of the incubation, membranes were filtered onto unitfilter (96-well white microplate with bonded GF/C filter preincubated 1 h in 0.3% PEI+0.3% BSA, Packard BioScience, Meriden, Conn.) with a Filtermate 196 harvester (Packard BioScience) and washed 4 times with ice-cold 50 mM Tris-HCl, pH 7.4 buffer. Nonspecific binding was measured in the presence of 10 μM SB222200 for both radioligands. The radioactivity on the filter was counted (5 min) on a Packard Top-count microplate scintillation counter with quenching correction after addition of 45 μl of microscint 40 (Canberra Packard S. A., Zürich, Switzerland) and shaking for 1 h. Inhibition curves were fitted according to the Hill equation: y=100/(1+(x/IC50)^nH), where nH=slope factor using Excel-fit 4 software (Microsoft). IC50 values were derived from the inhibition curve and the affinity constant (Ki) values were calculated using the Cheng-Prussoff equation Ki=IC50/(1+[L]/KD) where [L] is the concentration of radioligand and KD is its dissociation constant at the receptor, derived from the saturation isotherm. All experiments were performed in duplicate and the mean±standard error (SEM) of the individual Ki values was calculated.
`CN(C)[C@@H]1CCN(C(=O)N2C[C@H](c3ccc(Cl)c(Cl)c3)[C@@H](N(C)Cc3ccc(C(F)(F)F)c(F)c3)C2)C1` (mixture of isomers) [Example 57, {(3SR,4RS)-3-(3,4-Dichloro-phenyl)-4-[(3-fluoro-4-trifluoromethyl-benzyl)-methyl-amino]-pyrrolidin-1-yl}-((R)-3-dimethylamino-pyrrolidin-1-yl)-methanone]: the Ki was determined as 74.8 nM.

For the compound `C[C@H]1CN(C(=O)N2C[C@H](c3ccc(Cl)c(Cl)c3)[C@@H](N(C)Cc3ccc(C(F)(F)F)c(F)c3)C2)CCN1S(C)(=O)=O` (mixture of isomers) [Example 59, {(3SR,4RS)-3-(3,4-Dichloro-phenyl)-4-[(3-fluoro-4-trifluoromethyl-benzyl)-methyl-amino]-pyrrolidin-1-yl}-((S)-4-methanesulfonyl-3-methyl-piperazin-1-yl)-methanone], the Ki was 15.4 nM. For `C[C@@H]1CN(C(=O)N2C[C@H](c3ccc(Cl)c(Cl)c3)[C@@H](N(C)Cc3ccc(C(F)(F)F)c(F)c3)C2)CCN1S(C)(=O)=O` (mixture of isomers) [Example 60, {(3SR,4RS)-3-(3,4-Dichloro-phenyl)-4-[(3-fluoro-4-trifluoromethyl-benzyl)-methyl-amino]-pyrrolidin-1-yl}-((R)-4-methanesulfonyl-3-methyl-piperazin-1-yl)-methanone], the Ki is 3.6 nM. For `CC(=O)N[C@H]1CCN(CC(=O)N2C[C@H](c3ccc(Cl)c(Cl)c3)[C@@H](N(C)Cc3ccc(C(F)(F)F)c(F)c3)C2)C1` (mixture of isomers) [Example 133, N-[(S)-1-(2-{(3SR,4RS)-3-(3,4-Dichloro-phenyl)-4-[(3-fluoro-4-trifluoromethyl-benzyl)-methyl-amino]-pyrrolidin-1-yl}-2-oxo-ethyl)-pyrrolidin-3-yl]-acetamide] the value was 23.2 nM.

In the case of `CC(=O)N[C@@H]1CCN(CC(=O)N2C[C@H](c3ccc(Cl)c(Cl)c3)[C@@H](N(C)Cc3ccc(C(F)(F)F)c(F)c3)C2)C1` (mixture of isomers) [Example 134, N-[(R)-1-(2-{(3SR,4RS)-3-(3,4-Dichloro-phenyl)-4-[(3-fluoro-4-trifluoromethyl-benzyl)-methyl-amino]-pyrrolidin-1-yl}-2-oxo-ethyl)-pyrrolidin-3-yl]-acetamide], the Ki came out at 43.2 nM.

Take `C[C@H]1CN(CC(=O)N2C[C@H](c3ccc(Cl)c(Cl)c3)[C@@H](N(C)Cc3ccc(C(F)(F)F)c(F)c3)C2)CCN1` (mixture of isomers) [Example 140, 1-{(3SR,4RS)-3-(3,4-Dichloro-phenyl)-4-[(3-fluoro-4-trifluoromethyl-benzyl)-methyl-amino]-pyrrolidin-1-yl}-2-((S)-3-methyl-piperazin-1-yl)-ethanone]: the Ki was determined as 47.9 nM. For the compound `C[C@@H]1CN(CC(=O)N2C[C@H](c3ccc(Cl)c(Cl)c3)[C@@H](N(C)Cc3ccc(C(F)(F)F)c(F)c3)C2)CCN1` (mixture of isomers) [Example 141, 1-{(3SR,4RS)-3-(3,4-Dichloro-phenyl)-4-[(3-fluoro-4-trifluoromethyl-benzyl)-methyl-amino]-pyrrolidin-1-yl}-2-((R)-3-methyl-piperazin-1-yl)-ethanone], the Ki was 59.7 nM. For `CN(Cc1ccc(C(F)(F)F)c(F)c1)[C@H]1CN(C(=O)CN2C[C@@H]3C[C@@H]2CO3)C[C@@H]1c1ccc(Cl)c(Cl)c1` (mixture of isomers) [Example 148, 1-{(3SR,4RS)-3-(3,4-Dichloro-phenyl)-4-[(3-fluoro-4-trifluoromethyl-benzyl)-methyl-amino]-pyrrolidin-1-yl}-2-(1S,4R)-2-oxa-5-aza-bicyclo[2.2.1]hept-5-yl-ethanone] the value was 25.1 nM; for `CN(Cc1ccc(C(F)(F)F)c(F)c1)[C@H]1CN(C(=O)N2CCN(S(C)(=O)=O)CC2)C[C@@H]1c1ccccc1` (racemic) [Example 17, {(3RS,4SR)-3-[(3-Fluoro-4-trifluoromethyl-benzyl)-methyl-amino]-4-phenyl-pyrrolidin-1-yl}-(4-methanesulfonyl-piperazin-1-yl)-methanone], 90.9 nM.
